Where a SMILES comes first, the peptide text is derived from it. Bridges are numbered along the chain shown (N, C = ends). Side-chain parts run from the residue outwards. [ ]: non-standard residue; d: D form. The star is where a group is joined. X5 = O=C(O)CN1CCN(CC(=O)O)CCN(CC(=O)N[C@@H](CS(=O)(=O)O)C(=O)N[C@@H](CCCCNC(=O)CCCc2ccc(Cl)cc2)C(=O)*)CCN(CC(=O)O)CC1; DOTA = O=C(O)CN1CCN(CC(=O)O)CCN(CC(=O)*)CCN(CC(=O)O)CC1; NMeLys(iPr) = CN[C@@H](CCCCNC(C)C)C(=O)O; 2Nal = N[C@@H](Cc1ccc2ccccc2c1)C(=O)O; Lys(iPr) = CC(C)NCCCC[C@H](N)C(=O)O; Cya = N[C@@H](CS(=O)(=O)O)C(=O)O
Test: in vivo
Design: species or system mice
Conditions: male, NOD.Cg-Rag1tm1Mom Il2rgtm1Wjl/SzJ (NRG), mouse, iv, total radioactivity
Experimental: The Z138 Mantle cell lymphoma cell line was purchased from the American Type Culture Collection (ATCC©CRL-3001). The cell line was cultured in a 5% CO2 atmosphere at 37° C. in a humidified incubator with IMDM medium supplemented with 10% fetal bovine serum, 100 I.U./mL penicillin, and 100 μg/mL streptomycin.
[^68Ga]GaCl3 was eluted from an iThemba Labs generator with a total of 4 mL of 0.1 M HCl. The eluted [^68Ga]GaCl3 solution was added to 2 mL of concentrated HCl. This radioactive mixture was then added to a DGA resin column and washed with 3 mL of 5 M HCl. The column was then dried with air and the [^68Ga]GaCl3 (0.10-0.50 GBq) was eluted with 0.5 mL of water into a vial containing a solution of the unlabeled precursor (25 μg) in 0.7 mL HEPES buffer (2 M, pH 5.3). The reaction mixture was heated in a microwave oven (Danby; DMW7700WDB) for 1 min at power setting 2. The mixture was purified by semi-prep HPLC and quality control was performed via analytical HPLC with the co-injection of the unlabeled standard with a one-twelfth of the radiotracer. Radiochemical yields (decay-corrected) were >50% and radiochemical purities were >95%.
Animal experiments were performed in accordance with guidelines established by the Canadian Council on Animal Care, under a research protocol approved by the Animal Ethics Committee of the University of British Columbia. For all studies, male NOD.Cg-Rag1tm1Momll2rgtm1Wjl/SzJ (NRG) mice were used and cells injected in a 100 μL solution of 1:1 ratio of PBS/Matrigel. For preclinical imaging and biodistribution studies, 5×10^6 cells of Z138, cells were subcutaneously inoculated on the left or right flank and tumors were grown to a size of 200-300 mm^3. […]
Under isoflurane anesthesia (2-2.5% isoflurane in 2 L/min 02), mice were injected intravenously with [^68Ga]Ga-BL34L6 or [^68Ga]Ga-BL34L7. Mice were euthanized by CO2 inhalation after anesthesia with isoflurane. Tissues were harvested, washed in PBS, patted dry, weighed, and then assayed radioactivity on a gamma counter. Counted radioactivities were converted to percentage injected dose per gram of tissue (% ID/g) using a calibration curve.

[1] = Biodistribution: Small Intestine

Which tissue uptake at 1 h (Biodistribution: Adrenals) does the source give for `CC(C)NCCCC[C@H](NC(=O)[C@H]1CCC(=O)N[C@@H](CCCCNC(=O)[C@H](CCCCNC(=O)CCCc2ccc(Cl)cc2)NC(=O)[C@H](CS(=O)(=O)O)NC(=O)CN2CCN(CC(=O)O)CCN(CC(=O)O)CCN(CC(=O)O)CC2)C(=O)N[C@@H](Cc2ccc(O)cc2)C(=O)N[C@@H](CCCCNC(C)C)C(=O)N[C@H](CCCNC(=N)N)C(=O)N[C@@H](Cc2ccc3ccccc3c2)C(=O)N[C@H](C)C(=O)N1)C(N)=O` [[^68Ga]Ga-BL34L16, metal not drawn] (K(X5)Y[Lys(iPr)][dR][2Nal][dA][dE][Lys(iPr)]-NH2; lactam N-7) here?
The tissue uptake at 1 h was 1.63 %ID/g.

And the tissue uptake at 3 h (Biodistribution: Adrenals)?
Its tissue uptake at 3 h is 0.7 %ID/g.

And the tissue uptake at 1 h (Biodistribution: Blood)?
The tissue uptake at 1 h was 7.27 %ID/g.

What about the tissue uptake at 3 h (Biodistribution: Blood) of the same compound?
The tissue uptake at 3 h was 2.7 %ID/g.

What about the tissue uptake at 1 h (Biodistribution: Bone) of the same compound?
The tissue uptake at 1 h was 2.65 %ID/g.

What about the tissue uptake at 3 h (Biodistribution: Bone) of the same compound?
Its tissue uptake at 3 h is 2.01 %ID/g.

What about the tissue uptake at 1 h (Biodistribution: Brain) of the same compound?
The tissue uptake at 1 h was 0.11 %ID/g.

And the tissue uptake at 3 h (Biodistribution: Brain)?
Its tissue uptake at 3 h is 0.06 %ID/g.

And the tissue uptake at 1 h (Biodistribution: Heart)?
The tissue uptake at 1 h was 1.66 %ID/g.

And the tissue uptake at 3 h (Biodistribution: Heart)?
Its tissue uptake at 3 h is 0.67 %ID/g.

What about the tissue uptake at 1 h (Biodistribution: Kidneys) of the same compound?
Its tissue uptake at 1 h is 3.56 %ID/g.

And the tissue uptake at 3 h (Biodistribution: Kidneys)?
The tissue uptake at 3 h was 2.2 %ID/g.

And the tissue uptake at 1 h (Biodistribution: Liver)?
The tissue uptake at 1 h was 2.61 %ID/g.

And the tissue uptake at 3 h (Biodistribution: Liver)?
The tissue uptake at 3 h was 2.33 %ID/g.

And the tissue uptake at 1 h (Biodistribution: Lungs)?
The tissue uptake at 1 h was 5.9 %ID/g.

And the tissue uptake at 3 h (Biodistribution: Lungs)?
The tissue uptake at 3 h was 2.85 %ID/g.

And the tissue uptake at 1 h (Biodistribution: Muscle)?
The tissue uptake at 1 h was 0.61 %ID/g.

And the tissue uptake at 3 h (Biodistribution: Muscle)?
Its tissue uptake at 3 h is 0.32 %ID/g.

And the tissue uptake at 1 h (Biodistribution: Pancreas)?
The tissue uptake at 1 h was 0.76 %ID/g.

And the tissue uptake at 3 h (Biodistribution: Pancreas)?
Its tissue uptake at 3 h is 0.31 %ID/g.

What about the tissue uptake at 1 h [1] of the same compound?
The tissue uptake at 1 h was 0.86 %ID/g.

And the tissue uptake at 3 h [1]?
Its tissue uptake at 3 h is 0.41 %ID/g.

And the tissue uptake at 1 h (Biodistribution: Spleen)?
The tissue uptake at 1 h was 2.48 %ID/g.

And the tissue uptake at 3 h (Biodistribution: Spleen)?
Its tissue uptake at 3 h is 2.05 %ID/g.

And the tissue uptake at 1 h (Biodistribution: Stomach)?
The tissue uptake at 1 h was 0.26 %ID/g.

What about the tissue uptake at 3 h (Biodistribution: Stomach) of the same compound?
The tissue uptake at 3 h was 0.16 %ID/g.

And the tissue uptake at 1 h (Biodistribution: Testes)?
The tissue uptake at 1 h was 1.16 %ID/g.

And the tissue uptake at 3 h (Biodistribution: Testes)?
Its tissue uptake at 3 h is 0.68 %ID/g.

And the tissue uptake at 1 h (Biodistribution: Z138 Tumor)?
The tissue uptake at 1 h was 10.1 %ID/g.

What about the tissue uptake at 3 h (Biodistribution: Z138 Tumor) of the same compound?
Its tissue uptake at 3 h is 15.2 %ID/g.

And the tissue to tissue ratio at 1 h (Ratio Tumor-to-Blood)?
Its tissue to tissue ratio at 1 h is 1.38.

What about the tissue to tissue ratio at 3 h (Ratio Tumor-to-Blood) of the same compound?
Its tissue to tissue ratio at 3 h is 5.74.

And the tissue to tissue ratio at 1 h (Ratio Tumor-to-Bone)?
Its tissue to tissue ratio at 1 h is 6.11.

And the tissue to tissue ratio at 3 h (Ratio Tumor-to-Bone)?
Its tissue to tissue ratio at 3 h is 19.3.

What about the tissue to tissue ratio at 1 h (Ratio Tumor-to-Kidney) of the same compound?
Its tissue to tissue ratio at 1 h is 2.83.

And the tissue to tissue ratio at 3 h (Ratio Tumor-to-Kidney)?
The tissue to tissue ratio at 3 h was 6.92.

And the tissue to tissue ratio at 1 h (Ratio Tumor-to-Muscle)?
Its tissue to tissue ratio at 1 h is 16.8.

And the tissue to tissue ratio at 3 h (Ratio Tumor-to-Muscle)?
Its tissue to tissue ratio at 3 h is 50.4.

And the tissue to tissue ratio at 1 h (Ratio Tumor-to-Pancreas)?
Its tissue to tissue ratio at 1 h is 13.6.

What about the tissue to tissue ratio at 3 h (Ratio Tumor-to-Pancreas) of the same compound?
The tissue to tissue ratio at 3 h was 50.7.

Which tissue uptake at 1 h (Biodistribution: Adrenals) does the source give for `CC(C)NCCCC[C@H](NC(=O)[C@H]1CCC(=O)N[C@@H](CCCCNC(=O)[C@H](CS(=O)(=O)O)NC(=O)CN2CCN(CC(=O)O)CCN(CC(=O)O)CCN(CC(=O)O)CC2)C(=O)N[C@@H](Cc2ccc(O)cc2)C(=O)N(C)[C@@H](CCCCNC(C)C)C(=O)N[C@H](CCCNC(=N)N)C(=O)N[C@@H](Cc2ccc3ccccc3c2)C(=O)N[C@H](C)C(=O)N1)C(N)=O` [[^68Ga]Ga-BL34N1, metal not drawn] (K([Cya-DOTA])Y[NMeLys(iPr)][dR][2Nal][dA][dE][Lys(iPr)]-NH2; lactam N-7) here?
The tissue uptake at 1 h was 0.17 %ID/g.

What about the tissue uptake at 1 h (Biodistribution: Blood) of the same compound?
Its tissue uptake at 1 h is 0.32 %ID/g.

What about the tissue uptake at 1 h (Biodistribution: Bone) of the same compound?
Its tissue uptake at 1 h is 0.13 %ID/g.

And the tissue uptake at 1 h (Biodistribution: Brain)?
The tissue uptake at 1 h was 0.02 %ID/g.

What about the tissue uptake at 1 h (Biodistribution: Heart) of the same compound?
The tissue uptake at 1 h was 0.12 %ID/g.

And the tissue uptake at 1 h (Biodistribution: Kidneys)?
The tissue uptake at 1 h was 2.7 %ID/g.

What about the tissue uptake at 1 h (Biodistribution: Liver) of the same compound?
The tissue uptake at 1 h was 0.71 %ID/g.

What about the tissue uptake at 1 h (Biodistribution: Lungs) of the same compound?
The tissue uptake at 1 h was 0.44 %ID/g.

And the tissue uptake at 1 h (Biodistribution: Muscle)?
Its tissue uptake at 1 h is 0.09 %ID/g.

And the tissue uptake at 1 h (Biodistribution: Pancreas)?
The tissue uptake at 1 h was 0.08 %ID/g.

What about the tissue uptake at 1 h [1] of the same compound?
Its tissue uptake at 1 h is 0.19 %ID/g.

What about the tissue uptake at 1 h (Biodistribution: Spleen) of the same compound?
The tissue uptake at 1 h was 0.26 %ID/g.

And the tissue uptake at 1 h (Biodistribution: Stomach)?
The tissue uptake at 1 h was 0.05 %ID/g.

What about the tissue uptake at 1 h (Biodistribution: Testes) of the same compound?
The tissue uptake at 1 h was 0.18 %ID/g.

What about the tissue uptake at 1 h (Biodistribution: Z138 Tumor) of the same compound?
Its tissue uptake at 1 h is 12 %ID/g.

And the tissue to tissue ratio at 1 h (Ratio Tumor-to-Blood)?
Its tissue to tissue ratio at 1 h is 37.7.

And the tissue to tissue ratio at 1 h (Ratio Tumor-to-Bone)?
The tissue to tissue ratio at 1 h was 92.2.

And the tissue to tissue ratio at 1 h (Ratio Tumor-to-Kidney)?
Its tissue to tissue ratio at 1 h is 4.6.

What about the tissue to tissue ratio at 1 h (Ratio Tumor-to-Muscle) of the same compound?
Its tissue to tissue ratio at 1 h is 157.

What about the tissue to tissue ratio at 1 h (Ratio Tumor-to-Pancreas) of the same compound?
The tissue to tissue ratio at 1 h was 146.

— US20250242064A1, “CXCR4-TARGETING COMPOUNDS, AND METHODS OF MAKING AND USING THE SAME” (PROVINCIAL HEALTH SERVICES AUTHORITY, priority 2022, published 2025)
